From patent publication US7947728B1, “Indole and indazole analogs as glycogen synthase activators” (Hoffmann-La Roche Inc., priority 2009, dated 2011)
pEC50: −log10 of the molar value.

Test system: glycogen synthase
Assay: Glycogen Synthase (GS) Assay
Format: biochemical
Conditions: for pEC50: compound concentration needed to give 50% maximum activation; for GS SC200: compound concentration needed to stimulate 200% of the enzyme activity
Experimental: The following tests were carried out in order to determine the activity of the compounds of formula (I).
Twelve μL per well of substrate solution containing glycogen (4.32 mg/′ml), 2.67 mM UDP-glucose, 21.6 mM phospho(enol)pyruvate and 2.7 mM NADH in 30 mM glycylglycine, pH 7.3 buffer was added into a polystyrene 384-well assay plate (BD Biosciences).
Compound solutions (8 μL/well) at various concentrations (0-300 μM) were added to the assay plate (columns 5-24). Compound solution contains 30 mM glycylglycine, pH 7.3, 40 mM KCl, 20 mM MgCl2, 9.2% DMSO, with (columns 15-24) or without (columns 5-14) 20 mM glucose 6-phosphate.
Enzyme solution (12 μL/well) containing glycogen synthase (16.88 μg/ml), pyruvate kinase (0.27 mg/ml), lactate dehydrogenase (0.27 mg/ml) in 50 mM Tris-HCl, pH 8.0, 27 mM DTT and bovine serum albumin (BSA, 0.2 mg/ml) was added to the assay plate (columns 3-24). As a blank control, enzyme solution without glycogen synthase was added into the top half wells of columns 1-2. To the bottom half wells of columns 1-2 were added a known activator, glucose 6-phosphate (at final concentration 5 mM) in addition to the enzyme solution. The reaction mixture was incubated at room temperature. The assay plate was then read for absorbance at 340 nm on an Envision reader every 3 minutes up to a total of 15 minutes.
The enzyme activity (with or without compound) was calculated by the reaction rate and represented by the optical density change (δOD) per minute. Percent stimulation of glycogen synthase activity by a compound at various concentrations was calculated by the following formula: % stimulation=100*Rs/Rt,
wherein Rs is the reaction rate of the enzyme in the presence of compound and Rt is the reaction rate of the enzyme in the absence of compound.
SC200 is defined as the compound concentration that is needed to stimulate 200% of the enzyme activity. EC50 is defined as the compound concentration that is needed to give 50% maximum activation.

pEC50	Structure (SMILES)	GS SC200
5.52	COc1cc(F)c(F)cc1-c1ccc(OCc2cccc3c2ccn3C(=O)CC(C)(C)C(=O)O)cc1 [Example 12, 4-[4-(4′,5′-Difluoro-2′-methoxy-biphenyl-4-yloxymethyl)-indol-1-yl]-2,2-dimethyl-4-oxo-butyric acid]	1.19 µM
5.41	COc1cc(F)c(F)cc1-c1ccc(OCc2cccc3[nH]ccc23)cc1 [Example 10, 4-(4′,5′-Difluoro-2′-methoxy-biphenyl-4-yloxymethyl)-1H-indole]	2.86 µM
4.73	Cn1nc(N)c2cc(COc3ccc(-c4cc(F)c(F)cc4F)cc3)ccc21 [Example 17, Methyl-5-(2′,4′,5′-trifluoro-biphenyl-4-yloxymethyl)-1H-indazol-3-ylamine]	3.9 µM
5.70	COc1cc(F)c(F)cc1-c1ccc(OCc2ccc3ccn(C(C)CC(=O)O)c3c2)cc1 (stereo not shown) [Example 9, 3-[6-(4′,5′-Difluoro-2′-methoxy-biphenyl-4-yloxymethyl)-indol-1-yl]-butyric Acid]	0.41 µM
5.51	COc1cc(F)c(F)cc1-c1ccc(OCc2cccc3c2ccn3CC(=O)O)cc1 [Example 13, [4-(4′,5′-Difluoro-2′-methoxy-biphenyl-4-yloxymethyl)-indol-1-yl]-acetic acid]	0.43 µM
5.61	COc1cc(F)c(F)cc1-c1ccc(OCc2cccc3c2ccn3C(=O)CCC(=O)O)cc1 [Example 11, 4-[4-(4′,5′-Difluoro-2′-methoxy-biphenyl-4-yloxymethyl)-indol-1-yl]-4-oxo-butyric acid]	0.44 µM
5.55	COc1cc(F)c(F)cc1-c1ccc(OCc2ccc3[nH]nc(N)c3c2)cc1 [Example 16, 5-(4′,5′-Difluoro-2′-methoxy-biphenyl-4-yloxymethyl)-1H-indazol-3-ylamine]	0.6 µM
5.18	COc1cc(F)c(F)cc1-c1ccc(OCc2cccc3c2ccn3C(C)CC(=O)O)cc1 (stereo not shown) [Example 15, 3-[4-(4′,5′-Difluoro-2′-methoxy-biphenyl-4-yloxymethyl)-indol-1-yl]-butyric acid]	2.29 µM
5.29	COc1cc(F)c(F)cc1-c1ccc(OCc2ccc3ccn(CC(=O)O)c3c2)cc1 [Example 8, [6-(4′,5′-Difluoro-2′-methoxy-biphenyl-4-yloxymethyl)-indol-1-yl]-Acetic Acid]	2 µM
5.26	COc1cc(F)c(F)cc1-c1ccc(OCc2cccc3c2ccn3CCC(=O)O)cc1 [Example 14, 3-[4-(4′,5′-Difluoro-2′-methoxy-biphenyl-4-yloxymethyl)-indol-1-yl]-propionic acid]	1.46 µM

The next lines start with the compound.

Structure (SMILES)	pEC50	GS SC200
COc1cc(F)c(F)cc1-c1ccc(OCc2ccc3ccn(CCC(=O)O)c3c2)cc1 [Example 7, 3-[6-(4′,5′-Difluoro-2′-methoxy-biphenyl-4-yloxymethyl)-indol-1-yl]-propionic Acid]	5.52	0.6 µM
COc1cc(F)c(F)cc1-c1ccc(OCc2ccc3cnn(CC(=O)O)c3c2)cc1 [Example 4, [6-(4′,5′-Difluoro-2′-methoxy-biphenyl-4-yloxymethyl)-indazol-1-yl]-acetic acid]	5.15	2.56 µM
COc1cc(F)c(F)cc1-c1ccc(OCc2cccc3c2cnn3CCC(=O)O)cc1 [Example 2, 3-[4-(4′,5′-Difluoro-2′-methoxy-biphenyl-4-yloxymethyl)-indazol-1-yl]-propionic acid]	4.59	5.52 µM
COc1cc(F)c(F)cc1-c1ccc(OCc2ccc3cn[nH]c3c2)cc1 [Example 3, 6-(4′,5′-Difluoro-2′-methoxy-biphenyl-4-yloxymethyl)-1H-indazole]	5.22	3.92 µM
COc1cc(F)c(F)cc1-c1ccc(OCc2cccc3[nH]ncc23)cc1 [Example 1, 4-(4′,5′-Difluoro-2′-methoxy-biphenyl-4-yloxymethyl)-1H-indazole]	5.18	4.57 µM
COc1cc(F)c(F)cc1-c1ccc(OCc2ccc3cc[nH]c3c2)cc1 [Example 6, 6-(4′,5′-difluoro-2′-methoxy-biphenyl-4-yloxymethyl)-1H-indole]	5.27	5.3 µM
COc1cc(F)c(F)cc1-c1ccc(OCc2ccc3cnn(CCC(=O)O)c3c2)cc1 [Example 5, 3-[6-(4′,5′-Difluoro-2′-methoxy-biphenyl-4-yloxymethyl)-indazol-1-yl]-propionic acid]	5.84	0.28 µM
